Values quoted from earlier work as cited in article PMC11728683, “Colon-Targeted Poly(ADP-ribose) Polymerase Inhibitors Synergize Therapeutic Effects of Mesalazine Against Rat Colitis Induced by 2,4-Dinitrobenzenesulfonic Acid” (Pharmaceutics, 2024).

Set-up: method as in PMID 31743034
Details: SSZ at an effective dose; cited from earlier work

O=C(O)c1cc(/N=N/c2ccc(S(=O)(=O)Nc3ccccn3)cc2)ccc1O [SSZ, Sulfasalazine]
colonic concentrations of 5-ASA after oral administration: millimolar levels
